Tests used:
[1] = test system: SW620 human colorectal carcinoma cells (mutant RAS) xenograft; assay: Xenograft study, mutant RAS SW620; assay type: in vivo, mice; settings: for Effect on tumour volume as compared to the control (in words) / Factor of tumour volume reduction as compared to the control: SW620 xenograft; for Factor of tumour volume reduction as compared to the control: over the timescale of the study; for Ratio of: Tumour Volume (Treatment)/Tumour Volume (Control) (mutant RAS SW620 xenograft): athymic mice, gavage once daily for 24 doses
Experimental: Biological Methods—Xenograft Studies
SW620 human colorectal carcinoma cells (mutant RAS, 7×10^7) or A375M human melanoma cells (mutant BRAF, 10^7) were inoculated sub-cutaneously in suspension (0.2 mL) into the right flank of female Crl:CD1-Foxn1nu athymic mice. Groups were assigned to treatment following stratified allocation of tumour volumes. Treatment with test compound began between days 11-14 post-cell administration. For gavage, a suspension (DMSO:water, 1:19, v/v at 10 m L/kg) was administered. Control animals received a similar dosage of vehicle (DMSO:water, 1:19, v/v). Treatment with test compound was continued once daily for 24 doses.

[2] = test system: WM266.4 melanoma cell line (mutant BRAF); assay: Assay C - SRB cell proliferation assay, WM266.4; assay type: cell-based; settings: Homo sapiens, WM 266-4, 120 h; WM266.4, 5 days growth
Experimental: (§1) Values for the blank (no cells) are subtracted from all values. The DMSO controls are set as 100% activity and assay points (the response) are calculated as a percentage of the DMSO control. Data are plotted using Graphpad Prism software and a non-linear regression line is calculated using a variable slope sigmoidal dose-response equation: Y=Bottom+[Top−Bottom]/[1+10^((Log EC50−X)*HillSlope)] where X is the logarithm of concentration and Y is the response). The IC50 generated by this procedure is the concentration of the drug that produces a percentage control fluorescence value midway between the saturation, and zero-effect plateaus. Three independent assays are usually performed and the mean IC50 is reported. Biological Methods—Assay C—SRB Cell Proliferation Assay (SRB GI50)
(§2) Cell lines (e.g., WM266.4 and A375M melanoma cell lines; SW620 colorectal carcinoma cell line) are routinely cultured in DMEM or RPMI1640 supplemented with 10% foetal bovine serum, at 37° C., in 10% CO2 water saturated atmosphere. Cultures are maintained in exponential growth phase by sub-culturing before having become confluent (3-5 day intervals). Single cell suspensions are prepared by harvesting an 80 cm^2 tissue culture flask with 5 mL commercial trypsin EDTA. After 5 minutes, the detached cells are mixed with 5 mL fully complemented culture medium and centrifugally pelleted (1000 rpm for 7 minutes). After aspirating the supernatant, the cell pellet is re-suspended in 10 mL fresh medium and the cells fully disaggregated by drawing the whole volume up/down 5 times through a 19-gauge needle. The concentration of the cells is determined using a haemocytometer ( 1/10 dilution). A suitable volume to give at least a 2-fold excess for the number of tests being conducted, typically 100-200 mL, is prepared by diluting the cell suspension to 10,000-40,000/mL, and 100 μL/well dispensed into 96 well plates using a programmable 8-channel peristaltic pump, giving 1000-4000 cells/well, leaving column 12 blank. The plates are returned to the incubator for 24 hours to allow the cells to re-attach.
(§3) The compounds being tested are prepared at 10 mM in DMSO. Aliquots (24 μL) are diluted into 1.2 mL culture medium giving 200 μM, and 10 serial dilutions of 3× performed by transferring 80 μL to 160 μL. Aliquots (100 μL) of each dilution are added to the wells, using an 8-channel pipettor, thus performing a final further 2× dilution, and giving doses ranging from 100 μM to 0.005 μM. Column 11 receives plain culture medium only. Each compound is tested in quadruplicate, each replicate being the average of four wells.
(§4) After a further 5 days growth, the plates are emptied, and the cells are fixed in 10% trichloroacteic acid for 30 minutes at 4° C. After thorough rinsing in running tap water, the plates are dried, and stained by adding 50 μL of a solution of 0.1% sulphorhodamine-B in 1% acetic acid, for 10 minutes at room temperature. The stain is poured out and the plates thoroughly rinsed under a stream of 1% acetic acid, thus removing unbound stain, and dried. The bound stain is taken into solution by addition of 100 μL Tris buffer pH 8, followed by 10 minutes on a plate-shaker (approximately 500 rpm). The absorbance at 540 nm in each well (being proportional to the number of cells present) is determined using a plate reader.
(§5) After averaging the blank values in column 12 this was subtracted from all values, and results expressed as a percentage of the untreated value (column 11). […] The GI50 generated by this procedure is the concentration of the drug that produces a percentage control A540 midway between the saturation, and zero-effect plateaus.

[3] = test system: A375M melanoma cell line (mutant BRAF); assay: Assay C - SRB cell proliferation assay, A375M; assay type: cell-based; settings: Homo sapiens, 120 h, 5 days growth
Experimental: as §1, §2, §3, §4, §5

| Compound | Effect on tumour volume as compared to the control (in words) [1] | Factor of tumour volume reduction as compared to the control [1] | Ratio of: Tumour Volume (Treatment)/Tumour Volume (Control) (mutant RAS SW620 xenograft) [1] | GI50 [2] [nM] | GI50 [3] [nM] |
| --- | --- | --- | --- | --- | --- |
| Cn1c(=O)[nH]c2nccc(Oc3ccc(NC(=O)Nc4cc(C(C)(C)C)nn4-c4ccccc4)c(F)c3)c21 [AA-01, 1-(3-Tert-butyl-1-phenyl-1H-pyrazol-5-yl)-3-(2-fluoro-4-(1-N-methyl-2-oxo-2,3-dihydro-1H-imidazo[4,5-b]pyridin-7-yloxy)phenyl)urea] | statistically significant efficacy | about 3 | 0.34 | 52 | 138 |
| Cn1c(=O)[nH]c2nccc(Oc3ccc(NC(=O)Nc4cc(C(C)(C)C)nn4-c4ccccc4)c4ccccc34)c21 [BB-01, 1-(3-Tert-butyl-1-phenyl-1H-pyrazol-5-yl)-3-(4-(1-methyl-2-oxo-2,3-dihydro-1H-imidazo[4,5-b]pyridin-7-yloxy)naphthalen-1-yl)urea] | – | – | – | 8 | 52 |
| Cc1ccc(-n2nc(C(C)(C)C)cc2NC(=O)Nc2ccc(Oc3ccnc4[nH]c(=O)n(C)c34)c3ccccc23)cc1 [BB-02, 1-(1-N-p-tolyl-3-tert-butyl-pyrazol-5-yl)-3-(4-(2-oxo-2,3-dihydro-1-N-methyl-1H-imidazo[4,5-b]pyridin-7-yl-oxy)naphthalen-1-yl)urea] | statistically significant efficacy | about 1.5 | 0.66 | 16 | 101 |
| CC(C)(C)c1cc(NC(=O)Nc2ccc(Oc3ccnc4[nH]c(=O)[nH]c34)cc2)n(-c2ccccc2)n1 [XX-01, 1-(5-Tert-butyl-2-phenyl-2H-pyrazol-3-yl)-3-[4-(2-oxo-2,3-dihydro-1H-imidazo[4,5-b]pyridin-7-yloxy)-phenyl]-urea] | relatively little effect | – | >1 | 390 | 1130 |
| Cc1ccc(-n2nc(C(C)(C)C)cc2NC(=O)Nc2ccc(Oc3ccnc4[nH]c(=O)n(C)c34)cc2)cc1 [XX-02, 1-(1-N-p-tolyl-3-tert-butyl-pyrazol-5-yl)-3-(4-(2-oxo-2,3-dihydro-1-N-methyl-1H-imidazo[4,5-b]pyridin-7-yl-oxy)phenyl)urea] | relatively little effect | – | 0.95 | 66 | 250 |
| Cn1c(=O)n(C)c2c(Oc3ccc(NC(=O)Nc4cc(C(C)(C)C)nn4-c4ccccc4)c(F)c3)ccnc21 [XX-03, 1-(3-Tert-butyl-1-phenyl-1H-pyrazol-5-yl)-3-(4-(1,3-dimethyl-2-oxo-2,3-dihydro-1H-imidazo[4,5-b]pyridin-7-yloxy)-2-fluorophenyl)urea] | relatively little effect | – | 0.97 | 33 | 247 |
| CC(C)(C)c1cc(NC(=O)Nc2ccc(Oc3ccnc4[nH]c(=O)[nH]c34)cc2)n(-c2ccc(F)cc2)n1 [XX-04, 1-[5-tert-Butyl-2-(4-fluoro-phenyl)-2H-pyrazol-3-yl]-3-[4-(2-oxo-2,3-dihydro-1H-imidazo[4,5-b]pyridin-7-yloxy)-phenyl]urea] | relatively little effect | – | 0.87 | 20 | 307 |
